Results on 8 molecules are retold here after PubChem BioAssay (NCI).

Test systems include LOX IMVI melanoma; M14 melanoma; COLO 205 colon; SK-MEL-28 melanoma; SK-OV-3 ovarian; SF-268 CNS; NCI-H522 lung; SN12C renal; MCF7 breast; OVCAR-3 ovarian; CCRF-CEM leukemia; HCT-116 colon; NCI-H23 lung; HOP-62 NSCLC; OVCAR-4 ovarian; MOLT-4 leukemia; HCT-15 colon; CAKI-1 renal; SNB-19 CNS; HT29 colon.
Holding throughout (test): NCI tumour cell line growth inhibition, 48 h

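Where inhibition never reached the appropriate level, the endpoint shown equals the highest concentration tested. Otherwise, values were interpolated linearly from a five-concentration, 48-hour dose response in 96-well plates. TGI: concentration producing complete growth inhibition.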 Bounds are passed on as bounds.

Take `CC(=O)[C@]1(O)Cc2c(O)c3c(c(O)c2C(OC2OC(C)C(O)C(O)C2F)C1)C(=O)c1ccccc1C3=O` (stereo partly drawn): the TGI amounted to 11.6 µM with LOX IMVI melanoma; 1.55 µM in the test on M14 melanoma; 3.47 µM in the test with COLO 205 colon; 2.7 µM in the test with SK-MEL-28 melanoma; 45.9 µM in the test with SK-OV-3 ovarian; 2.28 µM in the test on SF-268 CNS. Besides, the TGI is 2.28 µM with NCI-H522 lung; 12.4 µM with SN12C renal; more than 45.2 µM in the test on MCF7 breast; 6.64 µM with OVCAR-3 ovarian; 0.0642 µM in the test with CCRF-CEM leukemia; 6.83 µM with HCT-116 colon. The TGI with NCI-H23 lung was 0.303 µM; in the test on HOP-62 NSCLC, 0.629 µM; in the test on OVCAR-4 ovarian, 11.2 µM; with MOLT-4 leukemia it was 0.0577 µM.

Take `CCOCNC(=O)N(COCC)COCC`: the TGI with LOX IMVI melanoma, in the test with HCT-15 colon, in the test with M14 melanoma, in the test on COLO 205 colon, with SK-MEL-28 melanoma and in the test on SK-OV-3 ovarian was more than 100 µM each time. Also, the TGI in the test on SF-268 CNS, in the test with CAKI-1 renal, in the test with NCI-H522 lung, in the test with SN12C renal, in the test with OVCAR-3 ovarian and in the test with CCRF-CEM leukemia was more than 100 µM each time. The TGI in the test with HCT-116 colon, in the test on SNB-19 CNS, in the test with HOP-62 NSCLC, in the test on HT29 colon and in the test on MOLT-4 leukemia was more than 100 µM each time.

`Cc1cc(C)cc(Nc2nnc3n2S(=O)(=O)c2cc(C#N)c(Cl)cc2S3)c1`: the TGI amounted to 9.03 µM in the test on LOX IMVI melanoma; 8.16 µM in the test with HCT-15 colon; 28.2 µM in the test on M14 melanoma; 34.6 µM with COLO 205 colon; 14.2 µM with SK-MEL-28 melanoma; 21.9 µM in the test with SK-OV-3 ovarian. Moreover, the TGI is 5.48 µM in the test with SF-268 CNS; 12.6 µM with CAKI-1 renal; 4.59 µM with NCI-H522 lung; 7.15 µM in the test on SN12C renal; 6.56 µM in the test with MCF7 breast; 3.34 µM in the test with OVCAR-3 ovarian. In addition, the TGI is 4.32 µM in the test on CCRF-CEM leukemia; 6.37 µM in the test with HCT-116 colon; 21.6 µM in the test with SNB-19 CNS; 4.35 µM in the test on NCI-H23 lung; 9.25 µM with HOP-62 NSCLC; 4.98 µM in the test with HT29 colon. Also, the TGI was found to be 22.1 µM with OVCAR-4 ovarian and 52 µM in the test with MOLT-4 leukemia.

`O=[N+]([O-])c1ccccc1N=Nc1c(O)sc2ccccc12`: the TGI with LOX IMVI melanoma, in the test with HCT-15 colon, in the test on M14 melanoma, in the test with COLO 205 colon, in the test with SK-MEL-28 melanoma and with SK-OV-3 ovarian was more than 100 µM each time. For the same molecule, the TGI in the test on SF-268 CNS, in the test with CAKI-1 renal, in the test with NCI-H522 lung, with MCF7 breast, with OVCAR-3 ovarian and in the test with CCRF-CEM leukemia was more than 100 µM in each case. The TGI with HCT-116 colon is more than 100 µM; in the test on SNB-19 CNS, more than 100 µM; with NCI-H23 lung, more than 100 µM; with HOP-62 NSCLC, more than 100 µM; with HT29 colon, more than 100 µM; in the test with OVCAR-4 ovarian, 98.4 µM. This molecule had a TGI in the test with MOLT-4 leukemia of more than 100 µM.

Turning to `COC(=O)C1(c2ccc(N(C)C)cc2OC)CCCN(C(=O)Oc2ccccc2[N+](=O)[O-])CCc2c1[nH]c1ccccc21` (stereo not drawn), the TGI in the test with LOX IMVI melanoma, with M14 melanoma, in the test with COLO 205 colon, with SK-MEL-28 melanoma, in the test on SK-OV-3 ovarian and in the test on SF-268 CNS was more than 100 µM throughout. Moreover, the TGI in the test with CAKI-1 renal, in the test on NCI-H522 lung, with SN12C renal, with MCF7 breast, in the test on OVCAR-3 ovarian and in the test on HCT-116 colon was more than 100 µM each time. Further, the TGI in the test on NCI-H23 lung, in the test with HOP-62 NSCLC, with HT29 colon and in the test with MOLT-4 leukemia was more than 100 µM each time.

Consider `O=c1c2ccccc2nnn1-c1n[nH]c2ccccc12`, for which the TGI with HCT-15 colon, with M14 melanoma, with COLO 205 colon, in the test with SK-MEL-28 melanoma, in the test with SF-268 CNS and in the test on CAKI-1 renal was more than 100 µM in each case. Further, the TGI in the test with NCI-H522 lung, with SN12C renal, with MCF7 breast, in the test on OVCAR-3 ovarian, in the test with CCRF-CEM leukemia and in the test on HCT-116 colon was more than 100 µM throughout. In addition, the TGI with SNB-19 CNS, in the test on NCI-H23 lung, in the test on HOP-62 NSCLC, with HT29 colon and in the test with OVCAR-4 ovarian was more than 100 µM each time.

For the molecule `CN(CCCNc1ccc2ncn3c4ccccc4c(=O)c1c23)CCCN1C(=O)c2cccc3cc([N+](=O)[O-])cc(c23)C1=O`, the TGI worked out at 0.326 µM in the test with HCT-15 colon; 1.69 µM with M14 melanoma; 1.06 µM in the test on COLO 205 colon; 2.86 µM with SK-MEL-28 melanoma; 2.69 µM with SK-OV-3 ovarian; 2.28 µM in the test on SF-268 CNS. In addition, the TGI in the test with CAKI-1 renal was found to be 2 µM; with NCI-H522 lung, 1.48 µM; in the test with SN12C renal, 1.78 µM; with MCF7 breast, 0.114 µM; in the test with OVCAR-3 ovarian, 2.29 µM; in the test on CCRF-CEM leukemia it was 0.973 µM. The TGI came out at 0.02 µM in the test with HCT-116 colon; 2.28 µM in the test with SNB-19 CNS; 1.5 µM in the test on NCI-H23 lung; 2.15 µM with HOP-62 NSCLC; 0.0155 µM in the test on HT29 colon; 2.75 µM in the test with OVCAR-4 ovarian. The molecule also registered a TGI with MOLT-4 leukemia of 0.193 µM.

As for `COc1ccc2c(c1)CCCc1cn[nH]c1-2`, the TGI in the test on LOX IMVI melanoma, in the test on HCT-15 colon, with COLO 205 colon, with SK-MEL-28 melanoma, in the test on SK-OV-3 ovarian and with SF-268 CNS was more than 100 µM in each case. For the same molecule, the TGI in the test with CAKI-1 renal, in the test with NCI-H522 lung, in the test on SN12C renal, in the test on MCF7 breast, with OVCAR-3 ovarian and in the test on CCRF-CEM leukemia was more than 100 µM each time. Besides, the TGI with HCT-116 colon, with SNB-19 CNS, in the test on NCI-H23 lung, in the test on HOP-62 NSCLC, in the test on HT29 colon and in the test with OVCAR-4 ovarian was more than 100 µM in each case. Also, the TGI with MOLT-4 leukemia was more than 100 µM.
